Patent US20250011318A1 (ARCUS BIOSCIENCES, INC., priority 2023, published 2025)

Experiments:
Cbl-b = target: T1, Cbl-b (Homo sapiens, UniProt Q13191); assay: Cbl-b probe displacement HTRF binding assay; details: 0.4 nM biotinylated Cbl-b, 150 nM BODIPY probe
T1 construct: biotin (biotinylated)
How it was run: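 Biotinylated Cbl-b (0.4 nM) preincubated 60 min at RT with compound (20-point 1:2 series, 10 μM top), then 150 nM BODIPY probe for 15 min, then streptavidin-terbium detection. Buffer: 20 mM Hepes, 150 mM NaCl, 0.01% Triton X-100, 0.5 mM TCEP, 0.01% BSA. Loss of HTRF signal gave IC50 via four-parameter fit.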

Jurkat cells = assay: IL-2 secretion assay in CD3/CD28-activated Jurkat cells (AlphaLISA); type: cell-based, human; details: Homo sapiens, CD3/CD28 T Cell Activator, 24 h, IL-2 AlphaLISA
How it was run: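 Jurkat cells (50,000/well) preincubated 1 h at 37° C with compound (16-point 1:2 series, final 10 μM to 300 pM) in Opti-MEM, then stimulated with CD3/CD28 activator for 24 h. Supernatant IL-2 read by AlphaLISA; EC50 from 4-parameter logistic fit.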

T1 sequence (Q13191 whole entry, species assumed): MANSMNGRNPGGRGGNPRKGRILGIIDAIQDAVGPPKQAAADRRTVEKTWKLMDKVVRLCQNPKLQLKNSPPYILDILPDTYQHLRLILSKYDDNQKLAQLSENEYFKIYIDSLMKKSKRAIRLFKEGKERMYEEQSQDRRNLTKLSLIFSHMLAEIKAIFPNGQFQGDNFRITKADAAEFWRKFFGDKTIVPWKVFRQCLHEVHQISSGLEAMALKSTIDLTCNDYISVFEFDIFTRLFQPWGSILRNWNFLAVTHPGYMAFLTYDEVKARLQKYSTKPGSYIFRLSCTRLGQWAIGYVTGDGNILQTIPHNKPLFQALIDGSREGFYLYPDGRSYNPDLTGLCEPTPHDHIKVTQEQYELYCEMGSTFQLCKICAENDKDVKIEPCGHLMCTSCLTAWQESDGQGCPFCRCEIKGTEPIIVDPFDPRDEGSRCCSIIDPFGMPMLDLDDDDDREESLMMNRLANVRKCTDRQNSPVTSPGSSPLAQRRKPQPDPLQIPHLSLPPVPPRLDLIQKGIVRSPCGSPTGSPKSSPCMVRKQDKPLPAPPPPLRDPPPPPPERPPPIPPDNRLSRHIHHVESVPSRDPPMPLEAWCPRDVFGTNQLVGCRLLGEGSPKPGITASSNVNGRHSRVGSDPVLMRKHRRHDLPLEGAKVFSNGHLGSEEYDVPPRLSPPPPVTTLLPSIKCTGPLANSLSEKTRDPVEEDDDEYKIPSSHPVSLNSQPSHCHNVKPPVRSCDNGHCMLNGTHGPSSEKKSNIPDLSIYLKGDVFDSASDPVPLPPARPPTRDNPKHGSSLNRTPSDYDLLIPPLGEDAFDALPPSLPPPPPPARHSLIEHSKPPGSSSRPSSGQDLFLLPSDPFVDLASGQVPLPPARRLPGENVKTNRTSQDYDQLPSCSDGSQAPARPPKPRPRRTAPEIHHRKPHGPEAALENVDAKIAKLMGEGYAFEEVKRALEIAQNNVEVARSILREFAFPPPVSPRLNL

Row | IC50 (Cbl-b) | EC50 (Jurkat cells) | SMILES
1 | < 0.1 µM | 0.1 to 1 µM | Cn1cnnc1-c1cc(F)ccc1-c1cc(C2CC2)nc(-n2cnc3cc(CNCCOC(F)(F)F)[nH]c3c2=O)c1 [Example 30, 6-{6-cyclopropyl-4-[4-fluoro-2-(4-methyl-4H-1,2,4-triazol-3-yl)phenyl]-2-pyridyl}-2-[(2-trifluoromethoxyethylamino)methyl]-1,6-dihydro-1,4,6-triaza-7-indenone]
2 | < 0.1 µM | 0.1 to 1 µM | C[C@H]1CCCN(Cc2cc3c(C4CC4)cn(-c4cccc(-c5ccc(F)cc5-c5nccn5C)c4)c(=O)c3[nH]2)C1 [Example 17, 4-cyclopropyl-6-[3-[4-fluoro-2-(1-methylimidazol-2-yl)phenyl]phenyl]-2-[[(3S)-3-methylpiperidin-1-yl]methyl]-1H-pyrrolo[2,3-c]pyridin-7-one]
3 | < 0.1 µM | < 0.1 µM | Cn1ccnc1-c1cc(F)ccc1-c1cc(C2CC2)nc(-n2cc(C#N)c3cc(CN4CC5(C4)CS(=O)(=O)C5)[nH]c3c2=O)c1 [Example 87, 6-{6-cyclopropyl-4-[4-fluoro-2-(1-methyl-2-imidazolyl)phenyl]-2-pyridyl}-2-{(2,2-dioxo-2λ^6-thia-6-aza-6-spiro[3.3]heptyl)methyl}-7-oxo-1,6-dihydro-1,6-diaza-4-indenecarbonitrile]
4 | < 0.1 µM | < 0.1 µM | Cc1ccnnc1-c1cc(C#N)ccc1-c1cc(C2CC2)nc(-n2cc(C3CC3)c3cc(CN4CCC[C@H](C)C4)[nH]c3c2=O)c1 [Example 77]
5 | < 0.1 µM | < 0.1 µM | C[C@H]1CCCCN1Cc1cc2c(C#N)cn(-c3cc(-c4c(F)cc(F)cc4-c4nccn4C)cc(C4CC4)n3)c(=O)c2[nH]1 [Example 89, 2-{[(S)-2-methyl-1-piperidyl]methyl}-6-{6-cyclopropyl-4-[4,6-difluoro-2-(1-methyl-2-imidazolyl)phenyl]-2-pyridyl}-7-oxo-1,6-dihydro-1,6-diaza-4-indenecarbonitrile]
6 | < 0.1 µM | < 0.1 µM | C[C@H]1CCCN(Cc2nc3c(C(F)(F)F)cn(-c4cc(-c5ccc(F)cc5-c5nncn5C)cc(C5CC5)n4)c(=O)c3[nH]2)C1 [Example 50, 5-[6-cyclopropyl-4-[4-fluoro-2-(4-methyl-1,2,4-triazol-3-yl)phenyl]pyridin-2-yl]-2-[[(3S)-3-methylpiperidin-1-yl]methyl]-7-(trifluoromethyl)-3H-imidazo[4,5-c]pyridin-4-one]
7 | < 0.1 µM | < 0.1 µM | C[C@H]1CCCN(Cc2nc3c(C4CC4)cn(-c4cc(-c5ccc(F)cc5-c5nccn5C)cc(C5CC5)n4)c(=O)c3[nH]2)C1 [Example 51, 7-cyclopropyl-5-[6-cyclopropyl-4-[4-fluoro-2-(1-methylimidazol-2-yl)phenyl]pyridin-2-yl]-2-[[(3S)-3-methylpiperidin-1-yl]methyl]-3H-imidazo[4,5-c]pyridin-4-one]
8 | < 0.1 µM | 0.1 to 1 µM | COC1CN(Cc2cc3ncn(-c4cc(-c5ccc(F)cc5-c5nncn5C)cc(C5CC5)n4)c(=O)c3[nH]2)C1 [Example 32, 6-{6-cyclopropyl-4-[4-fluoro-2-(4-methyl-4H-1,2,4-triazol-3-yl)phenyl]-2-pyridyl}-2-[(3-methoxy-1-azetidinyl)methyl]-1,6-dihydro-1,4,6-triaza-7-indenone]
9 | < 0.1 µM | < 0.1 µM | COCCCc1nc2c(C(F)(F)F)cn(-c3cc(-c4ccc(F)cc4-c4nncn4C)cc(C4CC4)n3)c(=O)c2[nH]1 [Example 41, 5-{6-Cyclopropyl-4-[4-fluoro-2-(4-methyl-4H-1,2,4-triazol-3-yl)phenyl]-2-pyridyl}-2-(3-methoxypropyl)-7-(trifluoromethyl)-3,5-dihydro-1,3,5-triaza-4-indenone]
10 | < 0.1 µM | 0.1 to 1 µM | Cc1cccnc1-c1cc(C#N)ccc1-c1cc(C2CC2)nc(-n2cc(C3CC3)c3cc(CN4CCC[C@H](C)C4)[nH]c3c2=O)c1 [Example 74, 4-[2-cyclopropyl-6-[4-cyclopropyl-2-[[(3S)-3-methylpiperidin-1-yl]methyl]-7-oxo-1H-pyrrolo[2,3-c]pyridin-6-yl]pyridin-4-yl]-3-(3-methylpyridin-2-yl)benzonitrile]
11 | < 0.1 µM | < 0.1 µM | Cc1cccc(C(O)c2cc3c(C#N)cn(-c4cc(-c5ccc(F)cc5-c5nncn5C)cc(C5CC5)n4)c(=O)c3[nH]2)n1 (stereo not shown) [Example 93, 6-{6-cyclopropyl-4-[4-fluoro-2-(4-methyl-4H-1,2,4-triazol-3-yl)phenyl]-2-pyridyl}-2-[hydroxy(6-methyl-2-pyridyl)methyl]-7-oxo-1,6-dihydro-1,6-diaza-4-indenecarbonitrile]
12 | < 0.1 µM | 0.1 to 1 µM | Cn1cnnc1-c1cc(F)ccc1-c1cc(C2CC2)nc(-n2cnc3cc(C(F)F)[nH]c3c2=O)c1 [Example 128, 3-[6-cyclopropyl-4-[4-fluoro-2-(4-methyl-1,2,4-triazol-3-yl)phenyl]-pyridin-2-yl]-6-(difluoromethyl)-5H-pyrrolo[3,2-d]pyrimidin-4-one]
13 | < 0.1 µM | < 0.1 µM | COCCNCc1cc2ncn(-c3cc(-c4ccc(C#N)cc4-c4nc(C#N)cn4C)cc(C4CC4)n3)c(=O)c2[nH]1 [Example 116, 2-[5-cyano-2-[2-cyclopropyl-6-[6-[(2-methoxyethylamino)methyl]-4-oxo-5H-pyrrolo[3,2-d]pyrimidin-3-yl]pyridin-4-yl]phenyl]-1-methylimidazole-4-carbonitrilef]
14 | < 0.1 µM | < 0.1 µM | Cn1ccnc1-c1cc(F)ccc1-c1cc(C2CC2)nc(-n2cc(C3CC3)c3cc(CNC4(C)CCC4)[nH]c3c2=O)c1 [Example 55, 4-cyclopropyl-6-{6-cyclopropyl-4-[4-fluoro-2-(1-methyl-2-imidazolyl)phenyl]-2-pyridyl}-2-[(1-methylcyclobutylamino)methyl]-1,6-dihydro-1,6-diaza-7-indenone]
15 | 0.1 to 1 µM | > 5 µM | Cn1cnnc1-c1cc(F)ccc1-c1cc(C2CC2)nc(-n2cc(C#N)c3c(C#N)n[nH]c3c2=O)c1 [Example 27, 6-{6-cyclopropyl-4-[4-fluoro-2-(4-methyl-4H-1,2,4-triazol-3-yl)phenyl]-2-pyridyl}-7-oxo-1,6-dihydro-1,2,6-triaza-3,4-indenedicarbonitrile]
16 | 0.1 to 1 µM | 1 to 5 µM | C[C@H]1CCCN(Cc2cc3c(C4CC4)cn(-c4cc(-c5ccc(F)cc5-c5nncn5C)cc(O)n4)c(=O)c3[nH]2)C1 [Example 7, 2-{[(S)-3-methyl-1-piperidyl]methyl}-4-cyclopropyl-6-{4-[4-fluoro-2-(4-methyl-4H-1,2,4-triazol-3-yl)phenyl]-6-hydroxy-2-pyridyl}-1,6-dihydro-1,6-diaza-7-indenone]
17 | < 0.1 µM | 0.1 to 1 µM | Cc1cnnn1-c1cc(F)ccc1-c1cc(C2CC2)nc(-n2cc(C(F)(F)F)c3nc(C4CC4)[nH]c3c2=O)c1 [Example 133, 2-cyclopropyl-5-{6-cyclopropyl-4-[4-fluoro-2-(5-methyl-1H-1,2,3-triazol-1-yl)phenyl]-2-pyridyl}-7-(trifluoromethyl)-3,5-dihydro-1,3,5-triaza-4-indenone]
18 | < 0.1 µM | < 0.1 µM | Cn1cnnc1-c1cc(F)ccc1-c1cc(C2CC2)nc(-n2cc(C#N)c3cc([C@H](N)C(F)(F)F)[nH]c3c2=O)c1 [Example 98, 2-[(S)-1-amino-2,2,2-trifluoroethyl]-6-{6-cyclopropyl-4-[4-fluoro-2-(4-methyl-4H-1,2,4-triazol-3-yl)phenyl]-2-pyridyl}-7-oxo-1,6-dihydro-1,6-diaza-4-indenecarbonitrile]
19 | < 0.1 µM | < 0.1 µM | C[C@H]1CCCN(Cc2cc3c(C4CC4)cn(-c4cc(-c5ccc(C(F)(F)F)cc5-c5nccn5C)cc(C5CC5)n4)c(=O)c3[nH]2)C1 [Example 83, 4-Cyclopropyl-6-[6-cyclopropyl-4-[2-(1-methylimidazol-2-yl)-4-(trifluoromethyl)phenyl]pyridin-2-yl]-2-[[(3S)-3-methylpiperidin-1-yl]methyl]-1H-pyrrolo[2,3-c]pyridin-7-one]
20 | < 0.1 µM | < 0.1 µM | Cn1cnnc1-c1cc(F)ccc1-c1cc(C2CC2)nc(-n2cc(C#N)c3c4c([nH]c3c2=O)CCCC4)c1 [Example 144, 2-{6-Cyclopropyl-4-[4-fluoro-2-(4-methyl-4H-1,2,4-triazol-3-yl)phenyl]-2-pyridyl}-1-oxo-2,5,6,7,8,9-hexahydroβ-carboline-4-carbonitrile]

Row | SMILES | IC50 (Cbl-b) | EC50 (Jurkat cells)
21 | C[C@H]1CCCN(Cc2cc3c(C#N)cn(-c4cc(-c5ccc(C#N)cc5-c5nccn5C)cc(C5CC5)n4)c(=O)c3[nH]2)C1 [Example 84, 2-{[(S)-3-methyl-1-piperidyl]methyl}-6-{4-[4-cyano-2-(1-methyl-2-imidazolyl)phenyl]-6-cyclopropyl-2-pyridyl}-7-oxo-1,6-dihydro-1,6-diaza-4-indenecarbonitrile] | < 0.1 µM | < 0.1 µM
22 | Cn1cnnc1-c1cc(F)ccc1-c1cc(C2CC2)nc(-n2cc(C(F)(F)F)c3c(C#N)n[nH]c3c2=O)c1 [Example 26, 6-{6-cyclopropyl-4-[4-fluoro-2-(4-methyl-4H-1,2,4-triazol-3-yl)phenyl]-2-pyridyl}-7-oxo-4-(trifluoromethyl)-1,6-dihydro-1,2,6-triaza-3-indenecarbonitrile] | < 0.1 µM | 1 to 5 µM
23 | C[C@H]1CCCN(Cc2cc3c(C4CC4)cn(-c4cc(-c5ccc(F)cc5-c5cncn5C)cc(Cl)n4)c(=O)c3[nH]2)C1 [Example 23, 2-{[(S)-3-methyl-1-piperidyl]methyl}-6-{6-chloro-4-[4-fluoro-2-(1-methyl-5-imidazolyl)phenyl]-2-pyridyl}-4-cyclopropyl-1,6-dihydro-1,6-diaza-7-indenone] | 1 to 5 µM | > 5 µM
